Experimental data reported in publication PMC6359172, “Symmetrical Heterocyclic Cage Skeleton: Synthesis, Urease Inhibition Activity, Kinetic Mechanistic Insight, and Molecular Docking Analyses” (Molecules, 2019).
Like-named read-outs stand apart in the source and are kept apart here.

Biological target: T1, jack bean urease (Canavalia ensiformis, UniProt P07374)
T1 construct: purchased Sigma (St. Louis, MO, USA)
Assay: biochemical
Description: The urease activity was determined by measuring the amount of ammonia produced with the indophenols method previously described. The reaction mixtures, comprising 20 µL of enzyme (jack bean urease, 5 U/mL) and 20 μL of test compounds in 50 μL buffer (100 mM urea, 0.01 M K2HPO4, 1 mM EDTA, and 0.01 M […], pH 8.2), were incubated for 30 min at 37 °C in a 96-well plate. Briefly, 50 μL each of phenol reagents (1%, w/v phenol and 0.005%, w/v sodium nitroprusside) and 50 μL of alkali reagent (0.5%, w/v NaOH and 0.1% active chloride NaOCl) were added to each well. The absorbance at 625 nm was measured after 10 min, using a microplate reader (OPTI Max, Tunable). All reactions were performed in triplicate. The urease inhibition activities were calculated according to the following formula:Urease inhibition activity (%) = (ODcontrol − ODsample × 100)/ODcontrol where ODcontrol and ODsample represents the optical densities in the absence and presence of the sample, respectively. Thiourea was used as the standard inhibitor for urease.

T1 sequence (P07374 whole entry, looked up): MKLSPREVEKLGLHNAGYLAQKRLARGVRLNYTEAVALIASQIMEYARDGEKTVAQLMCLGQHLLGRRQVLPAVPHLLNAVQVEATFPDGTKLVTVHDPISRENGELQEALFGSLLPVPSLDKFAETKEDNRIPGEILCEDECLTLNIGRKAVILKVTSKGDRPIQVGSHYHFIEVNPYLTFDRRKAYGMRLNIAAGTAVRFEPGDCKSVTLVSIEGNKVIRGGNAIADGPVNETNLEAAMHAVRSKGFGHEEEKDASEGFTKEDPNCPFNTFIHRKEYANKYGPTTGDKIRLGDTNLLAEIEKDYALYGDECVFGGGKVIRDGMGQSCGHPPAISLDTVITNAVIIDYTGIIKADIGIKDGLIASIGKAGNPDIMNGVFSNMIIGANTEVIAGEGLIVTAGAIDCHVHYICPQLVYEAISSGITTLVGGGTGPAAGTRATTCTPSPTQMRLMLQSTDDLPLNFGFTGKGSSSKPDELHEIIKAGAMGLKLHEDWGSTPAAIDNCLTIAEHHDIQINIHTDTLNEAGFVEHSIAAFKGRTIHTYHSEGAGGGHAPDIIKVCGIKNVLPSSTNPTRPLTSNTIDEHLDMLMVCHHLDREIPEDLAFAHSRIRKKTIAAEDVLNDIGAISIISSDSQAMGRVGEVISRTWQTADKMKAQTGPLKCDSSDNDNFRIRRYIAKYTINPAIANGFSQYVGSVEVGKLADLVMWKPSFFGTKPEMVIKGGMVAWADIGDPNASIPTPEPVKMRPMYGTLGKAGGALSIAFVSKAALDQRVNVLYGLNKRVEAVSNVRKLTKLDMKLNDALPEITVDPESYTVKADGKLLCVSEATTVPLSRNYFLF

| Compound | IC50 | IC50 (jack bean urease 5 U/mL, 100 mM urea, pH 8.2, 30 min 37 °C, read-out: Urease Inhibition IC50) |
| --- | --- | --- |
| COc1ccc(-c2n[nH]c(=O)n2/N=C/c2cccc(/C=N/n3c(-c4ccc(OC)cc4)n[nH]c3=O)n2)cc1 [Compound 3] | 18.9 ± 1.81 µM |  |
| NC(N)=S [Thio-Urea, Thiourea, reference compound] |  | 20.7 ± 0.45 µM |
| COc1ccc(-c2n[nH]c(=S)n2/N=C/c2cccc(/C=N/n3c(-c4ccc(OC)cc4)n[nH]c3=S)n2)cc1 [Compound 4] | 29.3 ± 3.32 µM |  |
